Test results as given in patent US9809634B2, “Composition comprising branched multipeptide vaccine and vaccine comprising the same” (INDUSTRY FOUNDATION OF CHONNAM NATIONAL UNIVERSITY, priority 2015, dated 2017).

System: T2 cell line expressing HLA-A2
Experiment: Binding capacity to T-lymphocyte of each subsequence residue (T2 cells, HLA-A2-FITC staining, flow cytometry)
Format: cell-based, human
Settings: T2 cells cultured overnight with peptide and beta2-microglobulin; FIG. 3; compared with the other subsequence residues of the same tumor antigen
Protocol: The binding capacity to T-lymphocyte, of each of the subsequence residues shown in Table 1 above, was measured (FIG. 3).
Measurement of binding capacity between T-lymphocyte and each of the subsequence residues
T2 cell line (Korea Cell Line Bank) is […] expressing HLA-A2. The peptide and beta2-microglobulin on T2 cells were cultured overnight, and the T2 cells were stained with antihuman HLA-A2-FITCmAb, and analyzed by a FACS Caliber flow cytometer and WinMDI software.
The binding capacity of subsequence residue was calculated from mean fluorescence with the peptide and mean fluorescence without the peptide according to the following Equation: […]

LLLFGLLGV (Peptide CD99-9) [SEQ ID NO: 10]
binding capacity to T-lymphocyte: most excellent

LMLGEFLKL [SEQ ID NO: 9]
binding capacity to T-lymphocyte: most excellent
